From publication PMC5218480 (PLoS ONE, 2017)

Test system: MV-4-11 cells
Experiment: Gene expression microarray analysis (Affymetrix PrimeView) and GSEA
Format: cell-based, human
Design: RFU PODN (11730768_x_at) / Fold change /veh PODN (11730768_x_at) / RFU LINC00158 (11744669_a_at) / Fold change /veh LINC00158 (11744669_a_at) / RFU DUSP10 (11751237_a_at) / Fold change /veh DUSP10 (11751237_a_at) / RFU ID3 (11757404_x_at) / Fold change /veh ID3 (11757404_x_at) / RFU PLEKHG5 (11737974_s_at) / Fold change /veh PLEKHG5 (11737974_s_at) / RFU LRRC4B (11730491_at) / Fold change /veh LRRC4B (11730491_at) / RFU GIMAP4 (11747438_a_at) / Fold change /veh GIMAP4 (11747438_a_at) / RFU KRT8 (11758183_x_at) / Fold change /veh KRT8 (11758183_x_at) / RFU CNN1 (11734310_a_at) / Fold change /veh CNN1 (11734310_a_at) / RFU VPS37D (11726825_at) / Fold change /veh VPS37D (11726825_at) / RFU C10orf10 (11716522_x_at) / Fold change /veh C10orf10 (11716522_x_at) / RFU KIR2DL2 /// KIR2DL4 /// KIR2DL5A /// KIR2DL5B /// KIR2DS1 /// KIR2DS2 /// KIR2DS3 /// KIR2DS4 /// KIR3DL3 /// KIR3DL3 /// KIR3DS1 (11738374_at) / Fold change /veh KIR2DL2 /// KIR2DL4 /// KIR2DL5A /// KIR2DL5B /// KIR2DS1 /// KIR2DS2 /// KIR2DS3 /// KIR2DS4 /// KIR3DL3 /// KIR3DL3 /// KIR3DS1 (11738374_at) / RFU C1QL1 (11718748_at) / Fold change /veh C1QL1 (11718748_at) / RFU TMPRSS4 (11747572_a_at) / Fold change /veh TMPRSS4 (11747572_a_at) / RFU HAMP (11756126_x_at) / Fold change /veh HAMP (11756126_x_at) / RFU RNFT2 (11725882_a_at) / Fold change /veh RNFT2 (11725882_a_at) / RFU NR4A2 (11747474_a_at) / Fold change /veh NR4A2 (11747474_a_at) / RFU ABCC12 (11746883_a_at) / Fold change /veh ABCC12 (11746883_a_at) / RFU TMEM136 (11760407_x_at) / Fold change /veh TMEM136 (11760407_x_at) / RFU CLDN22 /// WWC2 (11732394_at) / Fold change /veh CLDN22 /// WWC2 (11732394_at) / RFU HLA-DPB1 (11760878_x_at) / Fold change /veh HLA-DPB1 (11760878_x_at) / RFU SPINT1 (11716480_a_at) / Fold change /veh SPINT1 (11716480_a_at) / RFU GAP43 (11754022_s_at) / Fold change /veh GAP43 (11754022_s_at) / RFU A4GNT (11735810_at) / Fold change /veh A4GNT (11735810_at) / RFU PRB3 (11715151_x_at) / Fold change /veh PRB3 (11715151_x_at) / RFU TUBB4B (11761932_at) / Fold change /veh TUBB4B (11761932_at) / RFU CAPN14 (11732068_a_at) / Fold change /veh CAPN14 (11732068_a_at) / RFU TMCC2 (11721928_a_at) / Fold change /veh TMCC2 (11721928_a_at) / RFU IRGQ (11745062_a_at) / Fold change /veh IRGQ (11745062_a_at) / RFU FAM174B (11720279_a_at) / Fold change /veh FAM174B (11720279_a_at) / RFU TMPRSS4 (11748680_a_at) / Fold change /veh TMPRSS4 (11748680_a_at) / RFU FAM212B (11763350_a_at) / Fold change /veh FAM212B (11763350_a_at) / RFU PLEKHG5 (11743358_a_at) / Fold change /veh PLEKHG5 (11743358_a_at) / RFU ZSCAN30 (11745921_a_at) / Fold change /veh ZSCAN30 (11745921_a_at) / RFU CMKLR1 (11741424_a_at) / Fold change /veh CMKLR1 (11741424_a_at) / RFU LOC101060620 /// MAPK8IP1 (11723275_at) / Fold change /veh LOC101060620 /// MAPK8IP1 (11723275_at) / RFU SPTSSB (11747773_x_at) / Fold change /veh SPTSSB (11747773_x_at) / RFU PRSS12 (11739890_at) / Fold change /veh PRSS12 (11739890_at) / RFU BIN1 (11741810_x_at) / Fold change /veh BIN1 (11741810_x_at) / RFU WNT11 (11732464_a_at) / Fold change /veh WNT11 (11732464_a_at) / RFU C10orf10 (11716521_a_at) / Fold change /veh C10orf10 (11716521_a_at) / RFU C5orf56 (11738089_at) / Fold change /veh C5orf56 (11738089_at) / RFU CYB561 (11721691_x_at) / Fold change /veh CYB561 (11721691_x_at) / RFU ANKRD19P (11752326_a_at) / Fold change /veh ANKRD19P (11752326_a_at) / RFU OR2T12 /// OR2T33 /// OR2T8 (11738714_s_at) / Fold change /veh OR2T12 /// OR2T33 /// OR2T8 (11738714_s_at) / RFU VCAN (11748164_a_at) / Fold change /veh VCAN (11748164_a_at) / RFU JSRP1 (11732532_at) / Fold change /veh JSRP1 (11732532_at) / RFU KRTAP10-11 (11738290_x_at) / Fold change /veh KRTAP10-11 (11738290_x_at) / RFU MYO3A (11730013_a_at) / Fold change /veh MYO3A (11730013_a_at) / RFU EBF3 (11725865_a_at) / Fold change /veh EBF3 (11725865_a_at) / RFU CAMK2N1 (11719241_x_at) / Fold change /veh CAMK2N1 (11719241_x_at) / RFU C5orf56 (11738088_a_at) / Fold change /veh C5orf56 (11738088_a_at) / RFU OLFML3 (11715873_a_at) / Fold change /veh OLFML3 (11715873_a_at) / RFU LOC100653217 /// NTM (11731650_a_at) / Fold change /veh LOC100653217 /// NTM (11731650_a_at) / RFU MAPK11 (11762145_a_at) / Fold change /veh MAPK11 (11762145_a_at) / RFU FIZ1 (11724087_x_at) / Fold change /veh FIZ1 (11724087_x_at) / RFU OASL (11726364_x_at) / Fold change /veh OASL (11726364_x_at) / RFU SOX15 (11748057_x_at) / Fold change /veh SOX15 (11748057_x_at) / RFU CD79A (11719716_a_at) / Fold change /veh CD79A (11719716_a_at) / RFU HIST1H1D (11736915_at) / Fold change /veh HIST1H1D (11736915_at) / RFU CASKIN2 (11723855_a_at) / Fold change /veh CASKIN2 (11723855_a_at) / RFU LOC730098 (11760151_x_at) / Fold change /veh LOC730098 (11760151_x_at) / RFU OR4N2 (11742367_at) / Fold change /veh OR4N2 (11742367_at) / RFU PRRT2 (11749266_a_at) / Fold change /veh PRRT2 (11749266_a_at) / RFU SNX32 (11753110_a_at) / Fold change /veh SNX32 (11753110_a_at) / RFU CDHR5 (11726645_a_at) / Fold change /veh CDHR5 (11726645_a_at) / RFU RCAN1 (11760418_a_at) / Fold change /veh RCAN1 (11760418_a_at) / RFU FAM167A (11723789_a_at) / Fold change /veh FAM167A (11723789_a_at) / RFU FAM26E (11764081_at) / Fold change /veh FAM26E (11764081_at) / RFU ISYNA1 (11749810_s_at) / Fold change /veh ISYNA1 (11749810_s_at) / RFU ACY1 (11761880_at) / Fold change /veh ACY1 (11761880_at) / RFU 11764098_at / Fold change /veh 11764098_at / RFU SAMD14 (11745864_x_at) / Fold change /veh SAMD14 (11745864_x_at) / RFU NPB (11741838_a_at) / Fold change /veh NPB (11741838_a_at) / RFU TMPRSS6 (11731388_a_at) / Fold change /veh TMPRSS6 (11731388_a_at) / RFU KRTAP10-2 (11738614_at) / Fold change /veh KRTAP10-2 (11738614_at) / RFU ARHGAP8 /// PRR5-ARHGAP8 (11727945_x_at) / Fold change /veh ARHGAP8 /// PRR5-ARHGAP8 (11727945_x_at) / RFU KRTAP5-7 /// NADSYN1 (11734609_at) / Fold change /veh KRTAP5-7 /// NADSYN1 (11734609_at) / RFU RASL12 (11751679_a_at) / Fold change /veh RASL12 (11751679_a_at) / RFU CDKN2B (11736163_a_at) / Fold change /veh CDKN2B (11736163_a_at) / RFU PRF1 (11729649_at) / Fold change /veh PRF1 (11729649_at) / RFU, ZNF638 /// ZNF638-IT1 / Fold change vs veh, ZNF638 /// ZNF638-IT1 / RFU, PANK3 / Fold change vs veh, PANK3 / RFU, SH3YL1 / Fold change vs veh, SH3YL1 / RFU, ZEB2 / Fold change vs veh, ZEB2 / RFU, NRIP1 / Fold change vs veh, NRIP1 / RFU, PTTG1IP / Fold change vs veh, PTTG1IP / RFU, CAPN2 / Fold change vs veh, CAPN2 / RFU, MED14 / Fold change vs veh, MED14 / RFU, SNORA58 / Fold change vs veh, SNORA58 / RFU, C1orf63 / Fold change vs veh, C1orf63 / RFU, LRRFIP1 / Fold change vs veh, LRRFIP1 / RFU, NDUFAF7 / Fold change vs veh, NDUFAF7 / RFU, SLC12A2 / Fold change vs veh, SLC12A2 / RFU, IBTK / Fold change vs veh, IBTK / RFU, ESF1 / Fold change vs veh, ESF1 / Fold change vs veh, TMEM50B / RFU, TAOK1 / Fold change vs veh, TAOK1 / RFU, ACBD3 / Fold change vs veh, ACBD3 / RFU, TMA16 / Fold change vs veh, TMA16 / RFU, RWDD3 / Fold change vs veh, RWDD3 / RFU, BCAT1 / Fold change vs veh, BCAT1 / RFU, EDEM3 / Fold change vs veh, EDEM3 / RFU, TMEM33 / Fold change vs veh, TMEM33 / RFU, WDR75 / Fold change vs veh, WDR75 / RFU, AHCTF1 / Fold change vs veh, AHCTF1 / RFU, TFRC / Fold change vs veh, TFRC / RFU, ZDHHC17 / Fold change vs veh, ZDHHC17 / RFU, NOM1 / Fold change vs veh, NOM1 / RFU, ARL8B / Fold change vs veh, ARL8B / RFU, ZBTB11 / Fold change vs veh, ZBTB11 / RFU, TAMM41 / Fold change vs veh, TAMM41 / RFU, KIAA1704 /// LOC100996395 / Fold change vs veh, KIAA1704 /// LOC100996395 / RFU, ING1 / Fold change vs veh, ING1 / RFU, TRMT61B / Fold change vs veh, TRMT61B / RFU, FUBP3 / Fold change vs veh, FUBP3 / RFU, TP53 / Fold change vs veh, TP53 / RFU, TNKS2 / Fold change vs veh, TNKS2 / RFU, ZFP14 / Fold change vs veh, ZFP14 / RFU, ACTR2 / Fold change vs veh, ACTR2 / RFU, PPP3R1 / Fold change vs veh, PPP3R1 / RFU, PIK3R1 / Fold change vs veh, PIK3R1 / RFU, HNRNPA1 / Fold change vs veh, HNRNPA1 / RFU, RNF170 / Fold change vs veh, RNF170 / RFU, ZNF28 / Fold change vs veh, ZNF28 / RFU, RNGTT / Fold change vs veh, RNGTT / RFU, OGT / Fold change vs veh, OGT / RFU, BRD1 / Fold change vs veh, BRD1 / RFU, MARS / Fold change vs veh, MARS / RFU, ZNF655 / Fold change vs veh, ZNF655 / RFU, FAHD1 / Fold change vs veh, FAHD1 / RFU, BDP1 / Fold change vs veh, BDP1 / RFU, LRRCC1 / Fold change vs veh, LRRCC1 / RFU, ARID1A / Fold change vs veh, ARID1A / RFU, ZNF146 / Fold change vs veh, ZNF146 / RFU, ZNF330 / Fold change vs veh, ZNF330 / RFU, GPN3 / Fold change vs veh, GPN3 / RFU, C9orf123 / Fold change vs veh, C9orf123 / RFU, N4BP2L2 / Fold change vs veh, N4BP2L2 / RFU, ARFIP1 / Fold change vs veh, ARFIP1 / RFU, FAM179B / Fold change vs veh, FAM179B / RFU, BCL10 / Fold change vs veh, BCL10 / RFU, UHRF1BP1L / Fold change vs veh, UHRF1BP1L / RFU, BET1 / Fold change vs veh, BET1 / RFU, CNOT2 / Fold change vs veh, CNOT2 / RFU, ZNF268 / Fold change vs veh, ZNF268 / Fold change vs veh, ZNF507 / RFU, DGCR2 / Fold change vs veh, DGCR2 / RFU, WDSUB1 / Fold change vs veh, WDSUB1 / Fold change vs veh, HSP90B1 /// MIR3652 / RFU, ADSS / Fold change vs veh, ADSS / RFU, GK / Fold change vs veh, GK / RFU, ZNF148 / Fold change vs veh, ZNF148 / RFU, TAF9 / Fold change vs veh, TAF9 / RFU, SLC1A5 / Fold change vs veh, SLC1A5 / RFU, SLMO2 / Fold change vs veh, SLMO2 / RFU, ABCC4 / Fold change vs veh, ABCC4 / RFU, LOC101060439 /// RAP1B / Fold change vs veh, LOC101060439 /// RAP1B / RFU, RFX7 / Fold change vs veh, RFX7 / RFU, GTPBP10 / Fold change vs veh, GTPBP10 / RFU, CNEP1R1 / Fold change vs veh, CNEP1R1 / RFU, BIVM-ERCC5 /// ERCC5 / Fold change vs veh, BIVM-ERCC5 /// ERCC5 / RFU, ILF3 / Fold change vs veh, ILF3 / RFU 11762660_at / Fold change /veh 11762660_at / RFU VCAN (11757783_s_at) / Fold change /veh VCAN (11757783_s_at) / RFU DDX43 (11728927_at) / Fold change /veh DDX43 (11728927_at) / RFU KRT8 (11758188_x_at) / Fold change /veh KRT8 (11758188_x_at) / RFU NKD1 (11759106_at) / Fold change /veh NKD1 (11759106_at) / RFU SRD5A1 (11742802_a_at) / Fold change /veh SRD5A1 (11742802_a_at) / RFU TPSAB1 /// TPSB2 (11721975_s_at) / Fold change /veh TPSAB1 /// TPSB2 (11721975_s_at) / RFU GSTM3 (11746129_a_at) / Fold change /veh GSTM3 (11746129_a_at) / RFU IL23R (11737362_x_at) / Fold change /veh IL23R (11737362_x_at) / RFU TMEM51 (11727254_a_at) / Fold change /veh TMEM51 (11727254_a_at) / RFU PIWIL2 (11732686_x_at) / Fold change /veh PIWIL2 (11732686_x_at) / RFU ORM1 (11744905_x_at) / Fold change /veh ORM1 (11744905_x_at) / RFU CCDC152 (11743942_at) / Fold change /veh CCDC152 (11743942_at) / RFU ECM1 (11717891_a_at) / Fold change /veh ECM1 (11717891_a_at) / RFU IL23R (11748794_a_at) / Fold change /veh IL23R (11748794_a_at) / RFU TNFAIP8L3 (11732012_x_at) / Fold change /veh TNFAIP8L3 (11732012_x_at) / RFU MBOAT4 (11741988_at) / Fold change /veh MBOAT4 (11741988_at) / RFU 11764193_at / Fold change /veh 11764193_at / RFU TMEM53 (11763286_at) / Fold change /veh TMEM53 (11763286_at) / RFU MAGEB2 (11727129_at) / Fold change /veh MAGEB2 (11727129_at) / RFU TMEM200A (11744735_a_at) / Fold change /veh TMEM200A (11744735_a_at) / RFU CCDC152 (11751479_a_at) / Fold change /veh CCDC152 (11751479_a_at) / RFU FAM211A (11726209_a_at) / Fold change /veh FAM211A (11726209_a_at) / RFU RGS16 (11746705_a_at) / Fold change /veh RGS16 (11746705_a_at) / RFU VCAN (11755009_s_at) / Fold change /veh VCAN (11755009_s_at) / RFU RHOB (11743442_s_at) / Fold change /veh RHOB (11743442_s_at) / RFU RGS16 (11720943_a_at) / Fold change /veh RGS16 (11720943_a_at) / RFU RGS16 (11720944_at) / Fold change /veh RGS16 (11720944_at) / RFU, VPS4B / Fold change vs veh, VPS4B / RFU, CREB1 / Fold change vs veh, CREB1 / RFU, DNAJC13 / Fold change vs veh, DNAJC13 / RFU, GNAQ / Fold change vs veh, GNAQ / RFU, CDK5R1 / Fold change vs veh, CDK5R1 / RFU, ZRANB3 / Fold change vs veh, ZRANB3 / RFU, CUL4A / Fold change vs veh, CUL4A / RFU, CCNY / Fold change vs veh, CCNY / RFU, UFL1 / Fold change vs veh, UFL1 / RFU, COG3 / Fold change vs veh, COG3 / RFU, DIAPH2 / Fold change vs veh, DIAPH2 / RFU, SKA2 / Fold change vs veh, SKA2 / RFU, AFF3 / Fold change vs veh, AFF3 / RFU, LMF1 / Fold change vs veh, LMF1 / RFU, IPO11 / Fold change vs veh, IPO11 / RFU, DFFB / Fold change vs veh, DFFB / RFU, FOXP1 / Fold change vs veh, FOXP1 / RFU, CARD8 / Fold change vs veh, CARD8 / RFU, STRN3 / Fold change vs veh, STRN3 / RFU, ADK / Fold change vs veh, ADK / RFU, RASSF2 / Fold change vs veh, RASSF2 / RFU, WIPF1 / Fold change vs veh, WIPF1 / RFU, LARP1B / Fold change vs veh, LARP1B / RFU, RASA1 / Fold change vs veh, RASA1 / RFU, RB1 / Fold change vs veh, RB1 / RFU, PPFIA1 / Fold change vs veh, PPFIA1 / RFU, MAT2A / Fold change vs veh, MAT2A / RFU, CCT5 / Fold change vs veh, CCT5 / RFU, WDR92 / Fold change vs veh, WDR92 / RFU, CUX1 / Fold change vs veh, CUX1 / RFU, TTC7A / Fold change vs veh, TTC7A / RFU, TMEM135 / Fold change vs veh, TMEM135 / RFU, DEPTOR / Fold change vs veh, DEPTOR / RFU, CPM / Fold change vs veh, CPM / RFU, DNAJB6 / Fold change vs veh, DNAJB6 / RFU, CACNA2D3 / Fold change vs veh, CACNA2D3 / RFU, DTX4 / Fold change vs veh, DTX4 / RFU, TFCP2 / Fold change vs veh, TFCP2 / RFU, GMCL1 /// GMCL1P1 / Fold change vs veh, GMCL1 /// GMCL1P1 / RFU, AEBP2 / Fold change vs veh, AEBP2 / RFU, SNHG1 /// SNORD22 /// SNORD25 /// SNORD26 /// SNORD27 /// SNORD28 /// SNORD29 /// SNORD31 / Fold change vs veh, SNHG1 /// SNORD22 /// SNORD25 /// SNORD26 /// SNORD27 /// SNORD28 /// SNORD29 /// SNORD31 / Fold change (Aza/veh), C12orf56 (ProbeSet 11735607_a_at) / Fold change (ACY-1035/veh), C12orf56 (ProbeSet 11735607_a_at) / Fold change (Aza/veh), FGFR1OP (ProbeSet 11751329_s_at) / Fold change (ACY-1035/veh), FGFR1OP (ProbeSet 11751329_s_at) / Fold change (Aza/veh), VPS36 (ProbeSet 11739960_a_at) / Fold change (ACY-1035/veh), VPS36 (ProbeSet 11739960_a_at) / RFU SYPL1 (11715823_x_at) / Fold change /veh SYPL1 (11715823_x_at) / RFU IGFBP7 (11715501_s_at) / Fold change /veh IGFBP7 (11715501_s_at) / RFU REEP3 (11722064_at) / Fold change /veh REEP3 (11722064_at) / RFU IGLL1 (11728026_x_at) / Fold change /veh IGLL1 (11728026_x_at): dose or concentration left out as unconfirmed
Details: MV-4-11 cells, 48 hours

**Q.** Which “Fold change /veh TMEM53 (11763286_at)” value does the source give for `Nc1ncn([C@@H]2O[C@H](CO)[C@@H](O)[C@H]2O)c(=O)n1` [azacitidine] here?
**A.** 1.48
